Source: ChEMBL document CHEMBL5385848, “Discovery of novel hydroxyamidine based indoleamine 2,3-dioxygenase 1 (IDO1) and thioredoxin reductase 1 (TrxR1) dual inhibitors” (Eur J Med Chem, 2023)
pIC50: −log10 of the molar value. The source made the active and inactive calls. The rule behind the calls is not given here.

Tests used:
[1] = biological target: Indoleamine 2,3-dioxygenase 1 (Homo sapiens, UniProt P14902); assay: Inhibition of recombinant human IDO1 using L-Trp as substrate incubated for 1 hr
[2] = test system: HCT-116; assay: Antiproliferative activity against human HCT-116 cells assessed as cell growth inhibition incubated for 48 hrs by CCK-8 assay; type: functional, cell-based; settings: HCT-116, 48 h
[3] = biological target: T1, Thioredoxin reductase 1, cytoplasmic (Rattus norvegicus, UniProt O89049); assay: Inhibition of recombinant rat TrxR1 incubated for 1 hr in presence of NADPH by microplate reader analysis
T1 sequence (O89049 whole entry): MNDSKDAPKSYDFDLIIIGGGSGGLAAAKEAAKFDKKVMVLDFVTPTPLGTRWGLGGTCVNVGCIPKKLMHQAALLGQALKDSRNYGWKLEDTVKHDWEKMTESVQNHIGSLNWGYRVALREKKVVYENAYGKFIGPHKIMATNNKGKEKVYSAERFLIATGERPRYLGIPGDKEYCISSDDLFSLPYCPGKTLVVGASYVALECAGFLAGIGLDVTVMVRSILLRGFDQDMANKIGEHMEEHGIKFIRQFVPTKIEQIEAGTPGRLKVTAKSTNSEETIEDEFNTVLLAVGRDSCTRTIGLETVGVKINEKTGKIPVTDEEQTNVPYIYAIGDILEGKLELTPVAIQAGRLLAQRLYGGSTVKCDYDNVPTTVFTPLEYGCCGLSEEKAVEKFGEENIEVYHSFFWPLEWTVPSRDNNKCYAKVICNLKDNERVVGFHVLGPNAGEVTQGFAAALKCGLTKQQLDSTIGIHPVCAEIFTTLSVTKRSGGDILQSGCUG

[4] = Cytotoxicity against human HeLa cells incubated for 48 hrs by CCK-8 assay; type: toxicity, cell-based
[5] = biological target: T2, Indoleamine 2,3-dioxygenase 2 (Homo sapiens, UniProt Q6ZQW0); assay: Inhibition of IDO2 (unknown origin) using D-Trp as substrate incubated for 1 hr
T2 sequence (Q6ZQW0 whole entry): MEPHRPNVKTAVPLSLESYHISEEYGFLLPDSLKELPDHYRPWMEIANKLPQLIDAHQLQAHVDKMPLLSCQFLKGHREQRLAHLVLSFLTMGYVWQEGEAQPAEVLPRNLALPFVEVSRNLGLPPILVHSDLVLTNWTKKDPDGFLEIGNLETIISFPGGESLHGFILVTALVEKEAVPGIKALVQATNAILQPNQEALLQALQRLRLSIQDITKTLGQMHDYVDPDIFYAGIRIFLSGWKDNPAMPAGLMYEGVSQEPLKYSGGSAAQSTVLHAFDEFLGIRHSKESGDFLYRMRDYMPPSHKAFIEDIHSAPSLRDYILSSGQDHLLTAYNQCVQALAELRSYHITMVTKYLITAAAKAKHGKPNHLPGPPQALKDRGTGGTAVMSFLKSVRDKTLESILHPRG

[6] = Cytotoxicity against human HCT-116 cells incubated for 48 hrs by CCK-8 assay; type: toxicity, cell-based
[7] = Cytotoxicity against mouse CT26 cells incubated for 48 hrs by CCK-8 assay; type: toxicity, cell-based
[8] = Toxicity in athymic nude BALB/c mouse assessed as weight gain at 60 mg/kg, ig administered daily for 28 days and measured every 4 days; type: organism-based; settings: in vivo, po, 672 h, time 28 day
[9] = test system: CT26; assay: Antitumor activity against mouse CT26 cells implanted in athymic nude BALB/c mouse assessed as reduction in CD4+CD25+Foxp3+ lymphocytes at 60 mg/kg, ig administered daily for 28 days and measured every 4 days by immunofluorescence analysis; type: functional, organism-based; settings: time 28.0 day
[10] = test system: CT26; assay: Antitumor activity against mouse CT26 cells implanted in athymic nude BALB/c mouse assessed as reduction in proliferative nTreg lymphocytes at 60 mg/kg, ig administered daily for 28 days and measured every 4 days by immunofluorescence analysis; type: functional, organism-based; settings: time 28.0 day
[11] = test system: CT26; assay: Antitumor activity against mouse CT26 cells implanted in […] BALB/c mouse assessed as reduction in nTreg lymphocytes at 60 mg/kg, ig administered daily for 28 days and measured every 4 days by immunofluorescence analysis; type: functional, organism-based; settings: time 28.0 day
[12] = test system: CT26; assay: Antitumor activity against mouse CT26 cells implanted in […] BALB/c mouse assessed as increase in CD8 T lymphocytes at 60 mg/kg, ig administered daily for 28 days and measured every 4 days; type: functional, organism-based; settings: time 28.0 day
[13] = biological target: T3, Thioredoxin reductase 1, cytoplasmic (Homo sapiens) (UniProt Q16881); assay: Inhibition of TrxR1 in human HeLa cells incubated for 24 hrs; type: cell-based
T3 sequence (whole entry): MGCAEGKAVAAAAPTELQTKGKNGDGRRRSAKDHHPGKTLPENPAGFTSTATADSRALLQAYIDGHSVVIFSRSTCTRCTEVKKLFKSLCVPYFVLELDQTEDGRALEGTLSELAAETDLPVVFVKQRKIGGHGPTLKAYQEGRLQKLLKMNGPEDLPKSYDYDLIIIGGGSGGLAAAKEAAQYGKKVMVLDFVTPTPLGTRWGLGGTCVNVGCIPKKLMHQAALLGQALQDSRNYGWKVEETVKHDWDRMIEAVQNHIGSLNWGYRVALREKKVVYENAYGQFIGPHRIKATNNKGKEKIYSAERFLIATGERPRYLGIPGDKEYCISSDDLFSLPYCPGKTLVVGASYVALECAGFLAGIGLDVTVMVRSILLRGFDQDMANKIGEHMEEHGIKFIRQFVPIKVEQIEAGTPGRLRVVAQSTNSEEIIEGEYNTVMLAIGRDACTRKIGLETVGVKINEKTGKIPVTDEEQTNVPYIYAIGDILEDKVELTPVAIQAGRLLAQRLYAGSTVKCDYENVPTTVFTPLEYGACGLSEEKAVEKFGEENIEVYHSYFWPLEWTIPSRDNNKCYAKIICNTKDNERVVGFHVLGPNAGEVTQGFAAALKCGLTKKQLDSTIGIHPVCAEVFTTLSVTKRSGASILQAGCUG

[14] = biological target: Indoleamine 2,3-dioxygenase 1 (Mus musculus) (UniProt P28776); assay: In vivo inhibition of IDO1 in C57BL/6 mouse assessed as reduction in plasma Kyn level at 60 mg/kg, po administered once daily by LC-MS/MS analysis; type: functional, organism-based
[15] = test system: CT26; assay: Antitumor activity against mouse CT26 cells implanted in […] BALB/c mouse assessed as increase in CD4 Th lymphocytes at 60 mg/kg, ig administered daily for 28 days and measured every 4 days; type: functional, organism-based; settings: time 28.0 day
[16] = biological target: Indoleamine 2,3-dioxygenase 1 (Mus musculus) (UniProt P28776); assay: In vivo inhibition of IDO1 in C57BL/6 mouse assessed as increase in plasma Trp level at 60 mg/kg, po administered once daily by LC-MS/MS analysis; type: functional, organism-based
[17] = biological target: Indoleamine 2,3-dioxygenase 1 (Mus musculus) (UniProt P28776); assay: In vivo inhibition of IDO1 in C57BL/6 mouse assessed as reduction in plasma Kyn/Trp ratio at 60 mg/kg, po administered once daily by LC-MS/MS analysis; type: functional, organism-based
[18] = biological target: T4, Thioredoxin reductase 1, cytoplasmic (Mus musculus) (UniProt Q9JMH6); assay: Inhibition of TrxR1 in mouse CT26 cells incubated for 24 hrs; type: cell-based
T4 sequence (whole entry): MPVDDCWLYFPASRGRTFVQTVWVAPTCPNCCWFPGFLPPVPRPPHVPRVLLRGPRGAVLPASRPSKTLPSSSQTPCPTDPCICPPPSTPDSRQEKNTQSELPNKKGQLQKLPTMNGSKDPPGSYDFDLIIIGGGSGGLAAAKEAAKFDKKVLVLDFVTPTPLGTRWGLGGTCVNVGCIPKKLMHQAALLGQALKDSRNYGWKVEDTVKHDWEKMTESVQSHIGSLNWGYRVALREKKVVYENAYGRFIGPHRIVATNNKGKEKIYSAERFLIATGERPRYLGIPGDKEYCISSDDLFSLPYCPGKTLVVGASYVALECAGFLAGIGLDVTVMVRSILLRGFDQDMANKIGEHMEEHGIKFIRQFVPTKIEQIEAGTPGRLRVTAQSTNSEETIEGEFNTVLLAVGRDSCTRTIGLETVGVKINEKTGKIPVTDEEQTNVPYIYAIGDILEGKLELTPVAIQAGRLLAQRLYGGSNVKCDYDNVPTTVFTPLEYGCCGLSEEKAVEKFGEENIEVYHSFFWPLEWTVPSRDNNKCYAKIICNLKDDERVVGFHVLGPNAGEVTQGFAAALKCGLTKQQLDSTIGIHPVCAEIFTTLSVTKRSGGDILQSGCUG

[19] = biological target: T3, Thioredoxin reductase 1, cytoplasmic (Homo sapiens); assay: Inhibition of TrxR1 in human HCT-116 cells incubated for 24 hrs; type: cell-based

Indoleamine 2,3-dioxygenase 1 (Mus musculus), sequence (P28776 whole entry, looked up): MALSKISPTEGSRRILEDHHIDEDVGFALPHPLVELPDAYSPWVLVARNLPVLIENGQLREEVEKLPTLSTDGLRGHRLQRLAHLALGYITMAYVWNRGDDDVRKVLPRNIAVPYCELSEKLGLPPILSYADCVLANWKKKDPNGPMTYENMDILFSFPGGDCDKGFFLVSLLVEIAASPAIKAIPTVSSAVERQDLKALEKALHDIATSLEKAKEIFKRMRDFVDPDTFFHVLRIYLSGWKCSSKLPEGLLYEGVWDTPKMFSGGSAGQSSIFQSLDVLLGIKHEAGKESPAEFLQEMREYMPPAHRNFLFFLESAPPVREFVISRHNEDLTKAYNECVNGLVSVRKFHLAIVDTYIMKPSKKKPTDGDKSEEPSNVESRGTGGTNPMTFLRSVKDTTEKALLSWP
Indoleamine 2,3-dioxygenase 1, sequence (P14902 whole entry): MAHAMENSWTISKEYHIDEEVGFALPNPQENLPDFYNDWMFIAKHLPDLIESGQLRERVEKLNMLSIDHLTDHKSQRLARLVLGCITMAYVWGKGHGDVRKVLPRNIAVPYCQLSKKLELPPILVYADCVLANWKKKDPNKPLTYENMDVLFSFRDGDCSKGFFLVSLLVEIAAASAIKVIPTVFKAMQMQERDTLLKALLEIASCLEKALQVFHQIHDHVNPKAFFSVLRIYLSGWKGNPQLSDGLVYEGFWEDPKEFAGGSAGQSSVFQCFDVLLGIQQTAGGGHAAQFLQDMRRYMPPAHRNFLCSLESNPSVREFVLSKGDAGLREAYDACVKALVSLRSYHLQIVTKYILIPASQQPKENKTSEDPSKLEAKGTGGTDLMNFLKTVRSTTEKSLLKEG

| SMILES | pIC50 [1] | pIC50 [2] | pIC50 [3] | other results |
| --- | --- | --- | --- | --- |
| O=C(Cc1ccc(O)cc1)Nc1nnc(CCCNc2nonc2/C(=N\O)NCCc2ccc(Cl)cc2)s1 | 4.99 | 5.35 | 5.71 | – |
| O=C(Cc1cccc(OC(F)(F)F)c1)Nc1nnc(CCCNc2nonc2/C(=N\O)NCCc2ccc(Cl)cc2)s1 | 4.76 | 5.42 | 5.12 | – |
| O=C(Cc1ccccc1)Nc1nnc(CCCNc2nonc2/C(=N\O)NCCc2ccc(Cl)cc2)s1 | 5.10 | 5.33 | 5.19 | – |
| O=C(Cc1ccccc1)Nc1nnc(CCCNc2nonc2/C(=N\O)NCCc2ccc(F)cc2)s1 | 4.88 | 5.25 | 4.60 | – |
| NS(=O)(=O)NCCNc1nonc1C(=NO)Nc1ccc(F)c(Br)c1 [EPACADOSTAT] | – | – | – | IC50 at 48 h [4]: 4.63 µM; pIC50 [5]: 6.20; IC50 at 48 h [6]: 0.26 µM; IC50 at 48 h [7]: 1.49 µM; Activity [8]: Toxic |
| NS(=O)(=O)NCCNc1nonc1/C(=N/O)Nc1ccc(F)c(Br)c1 | – | – | – | Activity [9]: Active; Activity [10]: Active; Activity [11]: Active; Activity [12]: Active; inhibition [13]: inactive; Activity [14]: Active; Activity [15]: Active; Activity [16]: Active; Activity [17]: Active; inhibition [18]: inactive; inhibition [19]: inactive |
| O=C(Cc1ccc(O)cc1)Nc1nnc(CCCNc2nonc2/C(=N\O)NCCc2ccc(Br)cc2)s1 | 5.00 | 5.34 | 4.74 | – |

Second part, led by results:

| pIC50 [1] | pIC50 [2] | pIC50 [3] | SMILES | other results |
| --- | --- | --- | --- | --- |
| 5.25 | 5.51 | 4.98 | O=C(Cc1cccc(OC(F)(F)F)c1)Nc1nnc(CCCNc2nonc2/C(=N\O)NCCc2ccc(Br)cc2)s1 | – |
| 7.22 | 5.22 | 5.43 | O=C(Cc1ccccc1)Nc1nnc(CCCNc2nonc2/C(=N\O)Nc2ccc(F)c(Br)c2)s1 | – |
| 6.92 | 5.28 | 5.43 | O=C(Cc1cccc(OC(F)(F)F)c1)Nc1nnc(CCCNc2nonc2/C(=N\O)Nc2ccc(F)c(Br)c2)s1 | – |
| 5.36 | 5.27 | 4.87 | O=C(Cc1ccc(O)cc1)Nc1nnc(CCCNc2nonc2/C(=N\O)NCCc2ccc(F)cc2)s1 | – |
